Like-named read-outs stand apart in the source and are kept apart here.
Legend:
[1] = target: T1, hCB1R (Homo sapiens, UniProt P21554); experiment: cell-based; format: cell-based
T1 construct: host or cells: CHO

[2] = target: T1, hCB1R; experiment: cell-based; format: cell-based; remark: listed apart in the source
[3] = target: T2, Human recombinant TRPV1 (Homo sapiens, UniProt Q8NER1); experiment: cell-based; format: cell-based
T2 construct: expressed in transfected cells; host or cells: HEK293 (TRPV1-HEK-293, gift from John Davis, GlaxoSmithKline)
T2 sequence (Q8NER1 whole entry): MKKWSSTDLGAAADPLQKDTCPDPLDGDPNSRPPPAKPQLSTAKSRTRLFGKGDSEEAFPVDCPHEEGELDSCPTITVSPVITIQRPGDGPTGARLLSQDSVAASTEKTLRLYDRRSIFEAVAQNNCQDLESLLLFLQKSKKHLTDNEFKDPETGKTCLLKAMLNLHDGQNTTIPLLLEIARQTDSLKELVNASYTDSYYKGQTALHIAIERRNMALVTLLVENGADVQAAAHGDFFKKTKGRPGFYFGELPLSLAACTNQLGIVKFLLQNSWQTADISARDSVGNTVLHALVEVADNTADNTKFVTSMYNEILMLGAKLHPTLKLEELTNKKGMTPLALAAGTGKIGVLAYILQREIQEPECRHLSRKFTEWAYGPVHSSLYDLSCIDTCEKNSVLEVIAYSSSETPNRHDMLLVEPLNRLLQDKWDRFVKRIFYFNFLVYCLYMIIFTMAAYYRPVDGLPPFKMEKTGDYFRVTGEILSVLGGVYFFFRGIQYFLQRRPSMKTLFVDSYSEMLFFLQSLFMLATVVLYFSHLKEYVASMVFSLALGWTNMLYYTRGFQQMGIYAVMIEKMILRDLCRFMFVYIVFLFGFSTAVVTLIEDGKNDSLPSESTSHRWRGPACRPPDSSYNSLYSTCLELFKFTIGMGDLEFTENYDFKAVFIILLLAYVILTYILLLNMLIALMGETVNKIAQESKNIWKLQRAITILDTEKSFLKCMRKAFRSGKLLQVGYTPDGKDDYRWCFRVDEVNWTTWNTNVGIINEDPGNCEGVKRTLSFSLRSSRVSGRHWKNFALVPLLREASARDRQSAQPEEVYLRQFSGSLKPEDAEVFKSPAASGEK

[4] = target: T3, Rat recombinant TRPV2 (Rattus norvegicus, UniProt Q9WUD2); experiment: cell-based; format: cell-based; conditions: for IC50: vs LPC 3μM, read-out: TRPV2 IC50 for antagonism or desensitization
T3 construct: expressed in transfected cells; host or cells: HEK293 (plasmid a gift from HB Bradshaw, Indiana University)
T3 sequence (Q9WUD2 1-761): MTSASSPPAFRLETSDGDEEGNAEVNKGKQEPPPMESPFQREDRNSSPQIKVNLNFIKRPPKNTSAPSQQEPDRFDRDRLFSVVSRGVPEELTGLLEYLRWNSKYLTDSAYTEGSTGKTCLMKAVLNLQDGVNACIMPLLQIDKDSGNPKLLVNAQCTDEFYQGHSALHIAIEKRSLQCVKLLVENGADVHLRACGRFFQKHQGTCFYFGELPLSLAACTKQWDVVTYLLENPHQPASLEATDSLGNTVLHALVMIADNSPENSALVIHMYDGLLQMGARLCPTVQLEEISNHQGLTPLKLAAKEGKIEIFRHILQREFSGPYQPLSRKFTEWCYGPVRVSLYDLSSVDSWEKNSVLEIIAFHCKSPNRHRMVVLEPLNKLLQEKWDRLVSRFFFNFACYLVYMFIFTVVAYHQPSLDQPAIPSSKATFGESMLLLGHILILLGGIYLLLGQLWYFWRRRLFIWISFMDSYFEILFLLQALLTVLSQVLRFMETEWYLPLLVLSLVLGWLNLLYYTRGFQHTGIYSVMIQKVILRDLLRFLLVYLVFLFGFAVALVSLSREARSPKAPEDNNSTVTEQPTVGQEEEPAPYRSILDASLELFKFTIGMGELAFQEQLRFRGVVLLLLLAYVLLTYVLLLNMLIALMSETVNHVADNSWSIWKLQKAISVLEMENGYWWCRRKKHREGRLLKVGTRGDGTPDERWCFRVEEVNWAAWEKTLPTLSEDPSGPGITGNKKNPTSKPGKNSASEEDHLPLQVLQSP

[5] = target: T4, A3 (h) (Homo sapiens, UniProt P0DMS8); experiment: CEREP panel; format: binding
T4 construct: CEREP
T4 sequence (P0DMS8 1-318): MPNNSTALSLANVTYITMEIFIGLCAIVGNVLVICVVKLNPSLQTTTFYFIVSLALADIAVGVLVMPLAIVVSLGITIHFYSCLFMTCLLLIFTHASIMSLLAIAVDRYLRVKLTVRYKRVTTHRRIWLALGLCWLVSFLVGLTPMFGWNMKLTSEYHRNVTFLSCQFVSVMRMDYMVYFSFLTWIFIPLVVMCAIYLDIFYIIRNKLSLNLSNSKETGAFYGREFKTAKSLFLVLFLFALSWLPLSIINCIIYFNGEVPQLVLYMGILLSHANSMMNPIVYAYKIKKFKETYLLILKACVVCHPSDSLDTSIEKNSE

[6] = system: BZD (central); format: binding; conditions: 10 µM
[7] = target: T5, MT3 (ML2) (Mesocricetus auratus, UniProt A0ABM2YAB8); experiment: CEREP panel; format: binding; conditions: 10 µM
T5 construct: CEREP (contract assay)
T5 sequence (A0ABM2YAB8 1-231): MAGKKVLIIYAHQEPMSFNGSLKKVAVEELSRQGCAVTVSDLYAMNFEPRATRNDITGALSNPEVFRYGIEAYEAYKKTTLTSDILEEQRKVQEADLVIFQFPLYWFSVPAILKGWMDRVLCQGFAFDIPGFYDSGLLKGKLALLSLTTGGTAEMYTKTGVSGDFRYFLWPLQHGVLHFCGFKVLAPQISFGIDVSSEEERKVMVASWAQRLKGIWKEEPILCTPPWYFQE

[8] = i.v., mice
[9] = target: hCB2R (Homo sapiens, UniProt P34972); set-up: expressed in transfected cells; host or cells: Flp-In-293 (Invitrogen #R750-07), pcDNA5/FRT; conditions: hCB2R
hCB2R, sequence (P34972 whole entry): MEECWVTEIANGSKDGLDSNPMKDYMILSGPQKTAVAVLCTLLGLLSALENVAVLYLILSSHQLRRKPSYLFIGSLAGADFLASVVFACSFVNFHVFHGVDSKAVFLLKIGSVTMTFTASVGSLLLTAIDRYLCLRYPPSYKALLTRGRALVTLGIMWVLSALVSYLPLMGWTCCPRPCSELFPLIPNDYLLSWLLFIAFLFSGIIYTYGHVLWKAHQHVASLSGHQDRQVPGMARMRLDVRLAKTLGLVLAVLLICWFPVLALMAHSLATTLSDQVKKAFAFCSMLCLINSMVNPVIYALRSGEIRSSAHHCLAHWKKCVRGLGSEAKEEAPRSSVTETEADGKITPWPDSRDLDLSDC

[10] = target: T6, BZD (peripheral) (Rattus norvegicus, UniProt P16257); experiment: CEREP panel; format: binding; conditions: read-out: % inhibition BZD (peripheral)
T6 construct: CEREP
T6 sequence (P16257 whole entry): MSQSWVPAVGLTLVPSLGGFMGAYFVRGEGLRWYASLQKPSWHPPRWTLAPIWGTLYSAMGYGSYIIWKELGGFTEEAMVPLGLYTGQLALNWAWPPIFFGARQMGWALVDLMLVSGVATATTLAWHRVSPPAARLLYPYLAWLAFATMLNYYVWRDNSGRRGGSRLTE

[11] = system: Ca2+ channel (verapamil site); experiment: CEREP panel; format: binding; conditions: 10 µM

T1 sequence (P21554 whole entry): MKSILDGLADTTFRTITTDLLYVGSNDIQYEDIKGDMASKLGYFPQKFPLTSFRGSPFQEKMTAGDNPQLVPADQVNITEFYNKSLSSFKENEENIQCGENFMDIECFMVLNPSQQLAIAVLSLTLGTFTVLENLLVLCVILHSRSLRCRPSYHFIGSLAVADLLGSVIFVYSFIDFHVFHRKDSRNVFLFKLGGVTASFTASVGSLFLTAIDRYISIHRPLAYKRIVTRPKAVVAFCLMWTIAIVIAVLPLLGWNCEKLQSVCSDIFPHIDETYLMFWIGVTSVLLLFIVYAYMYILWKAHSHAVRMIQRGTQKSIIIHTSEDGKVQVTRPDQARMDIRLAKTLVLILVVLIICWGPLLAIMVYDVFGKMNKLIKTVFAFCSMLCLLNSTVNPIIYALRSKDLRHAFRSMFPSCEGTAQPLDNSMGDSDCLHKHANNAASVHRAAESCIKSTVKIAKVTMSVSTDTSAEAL

For `CN1CCCC[C@H]1Cn1cc(C(=O)c2cc([N+](=O)[O-])ccc2I)c2ccccc21` [(S)-AM1241], the “Emax ± SEM pERK hCB1R” value [1] was 17 ± 3, the “pEC50 ± SEM pERK hCB1R” value [1] was less than 4 and the “pEC50 ± SEM GIRK hCB1R” value [2] was less than 5. The “Emax ± SEM GIRK hCB1R” value ([2]; normalized to CP55940) was 19 ± 3%, the “TRPV1 Efficacy (% ionomycin 4μM)” value [3] was 12.0% and the IC50 ([3]; read-out: TRPV1 IC50 for antagonism or desensitization) was greater than 50 µM. The EC50 ([3]; read-out: TRPV1 Potency EC50) was greater than 50 µM, the “TRPV2 Efficacy (% ionomycin 4μM)” value [4] was 11.6% and the EC50 ([4]; read-out: TRPV2 Potency EC50) was 5 µM. For the same molecule, the IC50 [4] was 20.6 µM, the “% inhibition A3 (h)” value ([5]; 10 µM) was 42% and the “% inhibition BZD (central)” value [6] was -1%. The “% inhibition MT3 (ML2)” value [7] was 49%, the AUCinf [8] was 276 ng·h/mL and the AUCinf/dose [8] was 145 kg·ng·h/mL/mg. The AUClast [8] was 269 ng·h/mL, the CL [8] was 115 mL/min/kg and the T1/2 [8] was 1.4 h. The C0 ([8]; 1.0-2.0 mg/kg, extrapolated) was 413 ng/mL, the “GIRK-GTPγS bias factor (BF)” value [9] was 0.16 and the “GIRK-GTPγS ΔΔlogR” value [9] was -0.79. The “LogR GIRK” value [9] was 5.70, the “LogR GTPγS” value [9] was 6.9 and the “LogR pERK” value [9] was 7.54. For the same molecule, the “LogR β-AR” value [9] was 5.97, the “pERK-GIRK bias factor (BF)” value [9] was 4.72 and the “pERK-GIRK ΔΔlogR” value [9] was 0.68 ± 0.37. The “pERK-GTPγS bias factor (BF)” value [9] was 0.77, the “pERK-GTPγS ΔΔlogR” value [9] was -0.11 and the “β-AR-GIRK bias factor (BF)” value [9] was 0.43. The “β-AR-GIRK ΔΔlogR” value [9] was -0.37 ± 0.33, the “β-AR-GTPγS bias factor (BF)” value [9] was 0.07 and the “β-AR-GTPγS ΔΔlogR” value [9] was -1.16 ± 0.57. For the same molecule, the “β-AR-pERK bias factor (BF)” value [9] was 0.09, the “β-AR-pERK ΔΔlogR” value [9] was -1.05 ± 0.44 and the “ΔLogR GIRK” value ([9]; reference CP55940) was -2.17. For the same molecule, the “ΔLogR GTPγS” value ([9]; reference CP55940) was -1.38, the “ΔLogR pERK” value ([9]; reference CP55940) was -1.49 and the “ΔLogR β-AR” value ([9]; reference CP55940) was -2.54. The “RE GIRK” value ([9]; relative effectiveness) was 0.01, the “RE GTPγS” value ([9]; relative effectiveness) was 0.04 and the “RE pERK” value ([9]; relative effectiveness) was 0.03. The “RE β-AR” value ([9]; relative effectiveness) was 0.003.

`CCCCCCC(C)(C)c1cc(OC)c([C@@H]2C=C(CO)[C@@H]3C[C@H]2C3(C)C)c(OC)c1` [HU308] gave an EC50 [1] greater than 100 µM, an Emax ([1]; read-out: Emax ± SEM pERK hCB1R) of 18 ± 4% and an EC50 [2] greater than 10 µM. The Emax ([2]; AtT20, read-out: Emax ± SEM GIRK hCB1R) was 15 ± 10%, the “TRPV1 Efficacy (% ionomycin 4μM)” value [3] was less than 10% and the IC50 ([3]; TRPV1 IC50 for antagonism or desensitization) was 69 ± 5.7 µM. The “TRPV2 Efficacy (% ionomycin 4μM)” value [4] was less than 10%, the IC50 [4] was greater than 100 µM and the inhibition at 10 µM ([5]; read-out: % inhibition A3 (h)) was -1%. The “% inhibition BZD (central)” value [6] was -26%, the inhibition at 10 µM [10] was 12% and the “% inhibition Ca2+ channel (verapamil site)” value [11] was 3%. For the same molecule, the “GIRK-GTPγS bias factor (BF)” value [9] was 0.56, the “GIRK-GTPγS ΔΔlogR” value [9] was -0.26 and the “GIRK-cAMP bias factor (BF)” value [9] was 4.33. The “GIRK-cAMP ΔΔlogR” value [9] was 0.64 ± 0.17, the “GTPγS-cAMP bias factor (BF)” value [9] was 7.78 and the “GTPγS-cAMP ΔΔlogR” value [9] was 0.89 ± 0.30. The “LogR GIRK” value [9] was 6.281, the “LogR GTPγS” value [9] was 6.95 and the “LogR cAMP” value [9] was 8.49. The “LogR pERK” value [9] was 7.55, the “LogR β-AR” value [9] was 7.72 and the “pERK-GIRK bias factor (BF)” value [9] was 1.25. The “pERK-GIRK ΔΔlogR” value [9] was 0.1 ± 0.3, the “pERK-GTPγS bias factor (BF)” value [9] was 0.70 and the “pERK-GTPγS ΔΔlogR” value [9] was -0.16. For the same molecule, the “pERK-cAMP bias factor (BF)” value [9] was 5.42, the “pERK-cAMP ΔΔlogR” value [9] was 0.73 ± 0.27 and the “β-AR-GIRK bias factor (BF)” value [9] was 6.37. For the same molecule, the “β-AR-GIRK ΔΔlogR” value [9] was 0.80 ± 0.19, the “β-AR-GTPγS bias factor (BF)” value [9] was 3.54 and the “β-AR-GTPγS ΔΔlogR” value [9] was 0.55 ± 0.32. The “β-AR-cAMP bias factor (BF)” value [9] was 27.16, the “β-AR-cAMP ΔΔlogR” value [9] was 1.43 ± 0.16 and the “β-AR-pERK bias factor (BF)” value [9] was 5.08. For the same molecule, the “β-AR-pERK ΔΔlogR” value [9] was 0.71 ± 0.29, the “ΔLogR GIRK” value ([9]; reference CP55940) was -1.58 and the “ΔLogR GTPγS” value ([9]; reference CP55940) was -1.33. For the same molecule, the “ΔLogR cAMP” value ([9]; reference CP55940) was -2.22, the “ΔLogR pERK” value ([9]; reference CP55940) was -1.48 and the “ΔLogR β-AR” value ([9]; reference CP55940) was -0.78. For the same molecule, the “RE GIRK” value ([9]; relative effectiveness) was 0.03, the “RE GTPγS” value ([9]; relative effectiveness) was 0.05 and the “RE cAMP” value ([9]; relative effectiveness) was 0.006. The “RE pERK” value ([9]; relative effectiveness) was 0.03 and the “RE β-AR” value ([9]; relative effectiveness) was 0.17.

— PMC5216056 (Nature Communications, 2017)
